Measurements from US20260285853A1, “COMPOUNDS AND METHODS FOR MODULATING SPLICING” (REMIX THERAPEUTICS INC., priority 2023, published 2026).
Counter-ions that a name gives are not always drawn. Like-named read-outs stand apart in the source and are kept apart here.

Columns and labels:
Type in all cases: cell-based
HTT mRNA [1] = experiment: Splicing RT-qPCR assay (THP), Table 2A
MYB mRNA [2] = experiment: Splicing RT-qPCR assay (THP), Table 2A
HTT mRNA [3] = experiment: Gene panel canonical junction qPCR assay, decrease in CJ mRNA, Table 3
How it was run: (§1)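 IC50 denotes the concentration giving 50% decrease in canonical-junction mRNA, fitted by 4-parameter logistic to percentage response derived from ΔΔCt versus housekeeping gene and DMSO control. Cells (A673 or K562) exposed 24 h to 11-point 3-fold serial dilutions from 10 uM top, DMSO ≤0.25%; junction-spanning primer/probe qPCR.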

MYB mRNA [4] = experiment: as above
How it was run: as §1

[5] = test system: SH-SY5Y (human neuroblastoma) cells; experiment: Cell viability, Cell Titer Glo 2.0 assay; details: read-out: Viability SHSY5Y.3 GI50
How it was run: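 Viability was read by CellTiter-Glo 2.0 luminescence after a 72-hour compound exposure at 37° C. under 5% CO2. Cells were in IMDM plus 10% FBS containing 0.1% DMSO, and medium-only wells gave the blank.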

[6] = Table 2A (THP), AJ mRNA increase, read-out: HTT AJ (increase in alternative junction mRNA, AC50)
[7] = Table 2A (THP), CJ mRNA decrease, read-out: HTT CJ (decrease in canonical junction mRNA, IC50)
[8] = Table 2A (THP), AJ mRNA increase, read-out: MYB AJ (increase in alternative junction mRNA, AC50)
[9] = Table 2A (THP), CJ mRNA decrease, read-out: MYB CJ (decrease in canonical junction mRNA, IC50)
[10] = decrease in canonical junction (CJ) mRNA, gene panel qPCR, Table 3
[11] = Table 2A, THP, HTT alternative junction (AJ) mRNA, read-out: HTT AJ (AC50, increase in alternative junction mRNA)
[12] = Table 2A, THP, HTT canonical junction (CJ) mRNA, read-out: HTT CJ (IC50, decrease in canonical junction mRNA)
[13] = Table 2A, THP, MYB alternative junction (AJ) mRNA, read-out: MYB AJ (AC50, increase in alternative junction mRNA)
[14] = Table 2A, THP, MYB canonical junction (CJ) mRNA, read-out: MYB CJ (IC50, decrease in canonical junction mRNA)
[15] = decrease in CJ mRNA levels, canonical junction qPCR, gene panel

Row | Structure (SMILES) | IC50 (HTT mRNA [1]; [7]) [nM] | IC50 (MYB mRNA [2]; [9]) [nM] | IC50 (HTT mRNA [3]; [10]) [nM] | IC50 (MYB mRNA [4]; [10]) [nM] | GI50 [5] [nM] | IC50 (HTT mRNA [1]; [12]) [nM] | IC50 (MYB mRNA [2]; [14]) [nM] | IC50 (HTT mRNA [3]; [15]) [nM] | IC50 (MYB mRNA [4]; [15]) [nM] | AC50 (HTT mRNA [1]; [6]) [nM] | AC50 (MYB mRNA [2]; [8]) [nM] | AC50 (HTT mRNA [1]; [11]) [nM] | AC50 (MYB mRNA [2]; [13]) [nM]
1 | COc1nc2c(C(=O)Nc3cc(CNS(C)(=O)=O)c4nc(C)cn4c3)ccc(N3CCC(NC4CC4)CC3)c2s1 [Compound 855] |  |  |  |  | 1000 to 10000 | 1000 to 10000 | 1000 to 10000 | 1000 to 10000 | 1000 to 10000 |  |  | 1000 to 10000 | 1000 to 10000
2 | CCNC1CCN(c2ccc(C(=O)Nc3cc4cn(C)nc4cc3OC)c3nn(C)cc23)C(C)(C)C1 (stereo not drawn) [Compound 737, 4-[4-(ethylamino)-2,2-dimethyl-1-piperidyl]-N-(6-methoxy-2-methyl-indazol-5-yl)-2-methyl-indazole-7-carboxamide] |  |  |  |  | 1000 to 10000 | > 10000 | > 10000 | > 10000 | > 10000 |  |  | > 10000 | > 10000
3 | Cn1cc2cc(NC(=O)c3ccc(N4CCC(NC5CC5)CC4)c4cn(C)nc34)cc(CCNS(C)(=O)=O)c2n1 [Compound 840] |  |  |  |  | > 10000 | 1000 to 10000 | 1000 to 10000 | 1000 to 10000 | 1000 to 10000 |  |  | > 10000 | 1000 to 10000
4 | Cc1cc2c(nc(NC(=O)c3ccc(N4CCC(NC5CC5)CC4)c4cn(C)nc34)n2C)c(C)n1 [Compound 597, 4-[4-(cyclopropylamino)-1-piperidyl]-2-methyl-N-(1,4,6-trimethylimidazo[4,5-c]-pyridin-2-yl)indazole-7-carboxamide] | > 10000 | > 10000 | > 10000 | > 10000 | 1000 to 10000 |  |  |  |  | > 10000 | > 10000 |  | 
5 | Cc1cn2cc(NC(=O)c3ccc(NC(=O)c4ncc[nH]4)c4[nH]cnc34)cc(F)c2n1 [Compound 610, 2,2,2-trifluoroacetate] |  |  |  |  | > 10000 | > 10000 | > 10000 | > 10000 | > 10000 |  |  | > 10000 | > 10000
6 | CCNC1CCN(c2ccc(C(=O)Nc3cc4cn(C)nc4cc3OC)c3nn(C)cc23)C(C)C1 (stereo not drawn) [Compound 736, 4-(4-(ethylamino)-2-methylpiperidin-1-yl)-N-(6-methoxy-2-methyl-2H-indazol-5-yl)-2-methyl-2H-indazole-7-carboxamide 2,2,2-trifluoroacetate] |  |  |  |  | 1000 to 10000 | > 10000 | > 10000 | > 10000 | > 10000 |  |  | > 10000 | 1000 to 10000
7 | COc1cc(N2CCC(NC3CC3)CC2)c2cn(C)nc2c1C(=O)Nc1cc(CNS(C)(=O)=O)c2nn(C)cc2c1 [Compound 853] |  |  |  |  | > 10000 | > 10000 | > 10000 | > 10000 | > 10000 |  |  | > 10000 | > 10000
8 | CNCC1CCCN(c2ccc(C(=O)Nc3cc4cn(C)nc4cc3OC)c3nn(C)cc23)C1 (stereo not drawn) [Compound 545] | > 10000 | 1000 to 10000 | > 10000 | 1000 to 10000 | 1000 to 10000 |  |  |  |  | > 10000 | 1000 to 10000 |  | 
9 | CCNCc1nc(C)cn2cc(NC(=O)c3ccc(N4CCC(NC5CC5)CC4)c4cn(C)nc34)nc12 [Compound 812] |  |  |  |  | 1000 to 10000 | > 10000 | > 10000 | > 10000 | > 10000 |  |  | > 10000 | > 10000
10 | Cc1cn2cc(NC(=O)c3ccc(N4CCC(N(C)C5CC5)CC4)c4cn(C)nc34)nc2c(CNS(C)(=O)=O)n1 [Compound 777] |  |  |  |  | 1000 to 10000 | 1000 to 10000 | 1000 to 10000 | 1000 to 10000 | 1000 to 10000 |  |  | 1000 to 10000 | 1000 to 10000
11 | Cc1cn2cc(NC(=O)c3ccc(N(C)C)c4cn(C)nc34)nc2c(CNS(C)(=O)=O)n1 [Compound 792] |  |  |  |  | 1000 to 10000 | 1000 to 10000 | 1000 to 10000 | 1000 to 10000 | 1000 to 10000 |  |  | 1000 to 10000 | 1000 to 10000

Continued, in another order:

Row | IC50 (HTT mRNA [1]; [7]) [nM] | IC50 (MYB mRNA [2]; [9]) [nM] | IC50 (HTT mRNA [3]; [10]) [nM] | IC50 (MYB mRNA [4]; [10]) [nM] | GI50 [5] [nM] | IC50 (HTT mRNA [1]; [12]) [nM] | IC50 (MYB mRNA [2]; [14]) [nM] | IC50 (HTT mRNA [3]; [15]) [nM] | IC50 (MYB mRNA [4]; [15]) [nM] | Structure (SMILES) | AC50 (HTT mRNA [1]; [6]) [nM] | AC50 (MYB mRNA [2]; [8]) [nM] | AC50 (HTT mRNA [1]; [11]) [nM] | AC50 (MYB mRNA [2]; [13]) [nM]
12 | 1000 to 10000 | 100 to 1000 | 1000 to 10000 | 100 to 1000 | 1000 to 10000 |  |  |  |  | CCNC1CCN(c2ccc(C(=O)Nc3cc4cn(C)nc4cc3OC)c3nn(C)cc23)CC1 [Compound 388, 4-[4-(ethylamino)-1-piperidyl]-N-(6-methoxy-2-methyl-indazol-5-yl)-2-methyl-indazole-7-carboxamide] | 1000 to 10000 | 100 to 1000 |  | 
13 | > 10000 | > 10000 | > 10000 | > 10000 | 1000 to 10000 |  |  |  |  | COc1cc2nccn2cc1NC(=O)c1ccc(N2CCC(NC3CC3)CC2)c2cn(C)nc12 [Compound 574, 4-[4-(cyclopropylamino)-1-piperidyl]-N-(7-methoxy-imidazo[1,2-a]pyridin-6-yl)-2-methylindazole-7-carboxamide] | > 10000 | > 10000 |  | 
14 | > 10000 | 100 to 1000 | > 10000 | 100 to 1000 | 100 to 1000 |  |  |  |  | Cc1cn2cc(NC(=O)c3c(F)cc(N4CCC(NC5CC5)CC4)c4cn(C)nc34)nc2c(C)n1 [Compound 334, 4-(4-(cyclopropylamino)-piperidin-1-yl)-N-(6,8-dimethyl-imidazo[1,2-a]pyrazin-2-y1)-6-fluoro-2-methyl-2H-indazole-7-carboxamide bis(2,2,2-trifluoroacetate)] | 1000 to 10000 | < 100 |  | 
15 |  |  |  |  | 100 to 1000 | 100 to 1000 | < 100 | 100 to 1000 | < 100 | COc1nc2c(C(=O)Nc3cc(F)c4nn(C)cc4c3)ccc(N3CC[C@@H](NC(C)(C)C)C3)c2s1 [Compound 769] |  |  | 100 to 1000 | < 100
16 |  |  |  |  | 100 to 1000 | > 10000 | < 100 | > 10000 | < 100 | COc1nc2c(C(=O)Nc3cc(CO)c4nn(C)cc4c3)ccc(N3C[C@H](C)N[C@@H](C)C3)c2s1 [Compound 783, 7-((3S,5S)-3,5-dimethylpiperazin-1-yl)-N-(7-(hydroxymethyl)-2-methyl-2H-indazol-5-yl)-2-methoxybenzo[d]thiazole-4-carboxamide] |  |  | 1000 to 10000 | < 100
17 |  |  |  |  | 100 to 1000 | > 10000 | 100 to 1000 | > 10000 | 100 to 1000 | Cc1cn2cc(NC(=O)c3cc(F)c(N4CCC(NC5CC5)CC4)c4cn(C)nc34)cc(F)c2n1 [Compound 713, 4-[4-(cyclopropylamino)-1-piperidyl]-5-fluoro-N-(8-fluoro-2-methyl-imidazo[1,2-a]pyridin-6-yl)-2-methyl-indazole-7-carboxamide] |  |  | > 10000 | 100 to 1000
18 | 100 to 1000 | 100 to 1000 | 100 to 1000 | 100 to 1000 | 100 to 1000 |  |  |  |  | COc1cc2nn(C)cc2cc1NC(=O)c1ccc(N2CCC(NC3CC3)CC2)c2c(C)n(C)nc12 [Compound 485, 4-[4-(cyclopropylamino)-1-piperidyl]-N-(6-methoxy-2-methyl-indazol-5-yl)-2,3-dimethyl-indazole-7-carboxamide] | 100 to 1000 | 100 to 1000 |  | 
19 | > 10000 | 1000 to 10000 | > 10000 | 1000 to 10000 | 100 to 1000 |  |  |  |  | CC1OB(O)c2ccc(NC(=O)c3c(F)cc(N4CCC(NC5CC5)CC4)c4cn(C)nc34)cc21 (stereo not drawn) [Compound 558, 4-(4-(cyclopropyl-amino)piperidin-1-yl)-6-fluoro-N-(1-hydroxy-3-methyl-1,3-dihydrobenzo[c]-[1,2]oxaborol-5-y1)-2-methyl-2H-indazole-7-carboxamide hydrochloride] | > 10000 | 1000 to 10000 |  | 
20 |  |  |  |  | 100 to 1000 | 1000 to 10000 | < 100 | 1000 to 10000 | < 100 | COc1nc2c(C(=O)Nc3cn4cc(C)nc4c(F)c3OC)ccc(N3C[C@H](C)N[C@@H](C)C3)c2s1 [Compound 764, 7-((3S,5S)-3,5-dimethylpiperazin-1-yl)-N-(8-fluoro-7-methoxy-2-methylimidazo[1,2-a]pyridin-6-yl)-2-methoxybenzo[d]thiazole-4-carboxamide 2,2,2-trifluoroacetate] |  |  | > 10000 | < 100
21 |  |  |  |  | 100 to 1000 | 1000 to 10000 | < 100 | 1000 to 10000 | < 100 | CN[C@H]1CCN(c2ccc(C(=O)Nc3cc(F)c4nn(C)cc4c3)c3nc(OC)sc23)C1 [Compound 748, N-(7-fluoro-2-methyl-indazol-5-yl)-2-methoxy-7-[(3S)-3-(methylamino)pyrrolidin-1-yl]-1,3-benzothiazole-4-carboxamide] |  |  | 100 to 1000 | < 100
